Results on 17 compounds are retold here after BindingDB's records for doi:10.1016/j.bmcl.2004.02.022 (Pfizer, 2004).

In general, IC50 refers to the concentration at which inhibition is half-maximal. Read a low IC50 as higher potency.

A short description of the test: Inhibition of CCL3 induced chemotaxis in human T lymphocytes.
As for `CNC(=O)[C@H](CC(C)C)C[C@H](O)[C@H](CC1CCCCC1)NC(=O)c1cnc2ccccc2c1` [Quinoline-3-carboxylic acid ((1S,2S,7R)-1-cyclohexylmethyl-2-hydroxy-6-methyl-4-methylcarbamoyl-heptyl)-amide], the concentration for half-maximal inhibition (IC50) was found to be 0.84 µM.

`CC(C)(F)CCC(C[C@H](O)[C@H](Cc1ccccc1)NC(=O)c1cnc2ccccc2n1)C(=O)NCc1ccccc1` (stereo partly drawn) [Quinoxaline-2-carboxylic acid ((1S,2S)-1-benzyl-4-benzylcarbamoyl-7-fluoro-2-hydroxy-7-methyl-octyl)-amide] showed a concentration for half-maximal inhibition (IC50) of 0.44 µM.

On to `NC(=O)C(C[C@H](O)[C@H](Cc1ccccc1)NC(=O)c1cnc2ccccc2n1)C1CCCCC1` (stereo partly drawn) [Quinoxaline-2-carboxylic acid ((1S,2S)-1-benzyl-4-carbamoyl-4-cyclohexyl-2-hydroxy-butyl)-amide], for which inhibition was half-maximal at 0.005 µM (IC50). `CCNC(=O)C(CCC(C)(C)F)C[C@H](O)[C@H](Cc1ccccc1)NC(=O)c1cnc2ccccc2n1` (stereo partly drawn) [Quinoxaline-2-carboxylic acid ((1S,2S)-1-benzyl-4-ethylcarbamoyl-7-fluoro-2-hydroxy-7-methyl-octyl)-amide]: inhibition was half-maximal at 0.13 µM (IC50). As for `CC(C)(F)CCC(C[C@H](O)[C@H](Cc1ccccc1)NC(=O)c1cnc2ccccc2n1)C(=O)NO` (stereo partly drawn) [Quinoxaline-2-carboxylic acid ((1S,2S)-1-benzyl-7-fluoro-2-hydroxy-4-hydroxycarbamoyl-7-methyl-octyl)-amide], the figure is 0.031 µM; as for `CC(C)(F)CCC(C[C@H](O)[C@H](Cc1ccccc1)NC(=O)c1cnc2ccccc2n1)C(=O)NN` (stereo partly drawn) [Quinoxaline-2-carboxylic acid ((1S,2S)-1-benzyl-7-fluoro-4-hydrazinocarbonyl-2-hydroxy-7-methyl-octyl)-amide], 0.001 µM. The result for `CC(C)(O)CC[C@H](C[C@H](O)[C@H](Cc1ccccc1)NC(=O)c1cnc2ccccc2n1)C(N)=O` [Quinoxaline-2-carboxylic acid ((1S,2S,4R)-1-benzyl-4-carbamoyl-2,7-dihydroxy-7-methyl-octyl)-amide] reads 1.18 µM. The result for `CC(C)CC[C@H](C[C@H](O)[C@H](Cc1ccccc1)NC(=O)c1cnc2ccccc2n1)C(N)=O` [Quinoxaline-2-carboxylic acid ((1S,2S,4R)-1-benzyl-4-carbamoyl-2-hydroxy-7-methyl-octyl)-amide] reads 0.002 µM; that for `CC(C)(F)CC[C@H](C[C@H](O)[C@H](Cc1ccccc1)NC(=O)c1cnc2ccccc2n1)C(N)=O` [Quinoxaline-2-carboxylic acid ((1S,2S,4R)-1-benzyl-4-carbamoyl-7-fluoro-2-hydroxy-7-methyl-octyl)-amide], 0.013 µM; that for `O=C(N[C@@H](Cc1ccccc1)[C@@H](O)CC(C(=O)NO)C1CCC(F)(F)CC1)c1cnc2ccccc2n1` (stereo partly drawn) [Quinoxaline-2-carboxylic acid [(1S,2S)-1-benzyl-4-(4,4-difluoro-cyclohexyl)-2-hydroxy-4-hydroxycarbamoyl-butyl]-amide], 0.008 µM. With `NC(=O)C(C[C@H](O)[C@H](Cc1ccccc1)NC(=O)c1cnc2ccccc2n1)C1(O)CCCCC1` (stereo partly drawn) [Quinoxaline-2-carboxylic acid [(1S,2S)-1-benzyl-4-carbamoyl-2-hydroxy-4-(1-hydroxy-cyclohexyl)-butyl]-amide], the IC50 is 0.12 µM. The result for `NC(=O)C(C[C@H](O)[C@H](Cc1ccccc1)NC(=O)c1cnc2ccccc2n1)C1CCOCC1` (stereo partly drawn) [Quinoxaline-2-carboxylic acid [(1S,2S)-1-benzyl-4-carbamoyl-2-hydroxy-4-(tetrahydro-pyran-4-yl)-butyl]-amide] reads 12.5 µM; that for `NC(=O)C(C[C@H](O)[C@H](Cc1ccccc1)NC(=O)c1cnc2ccccc2n1)C1(O)CCC(F)(F)CC1` (stereo partly drawn) [Quinoxaline-2-carboxylic acid [(1S,2S)-1-benzyl-4-carbamoyl-4-(4,4-difluoro-1-hydroxy-cyclohexyl)-2-hydroxy-butyl]-amide], 0.068 µM. The result for `NC(=O)C(C[C@H](O)[C@H](Cc1ccccc1)NC(=O)c1cnc2ccccc2n1)C1CCC(F)(F)CC1` (stereo partly drawn) [Quinoxaline-2-carboxylic acid [(1S,2S)-1-benzyl-4-carbamoyl-4-(4,4-difluoro-cyclohexyl)-2-hydroxy-butyl]-amide] reads 0.22 µM; that for `CN1CCN(C(=O)C(CCC(C)(C)F)C[C@H](O)[C@H](Cc2ccccc2)NC(=O)c2cnc3ccccc3n2)CC1` (stereo partly drawn) [Quinoxaline-2-carboxylic acid [(1S,2S)-1-benzyl-7-fluoro-2-hydroxy-7-methyl-4-(4-methyl-piperazine-1-carbonyl)-octyl]-amide], 7.05 µM. For the compound `CC(C)(F)CCC(C[C@H](O)[C@H](Cc1ccccc1)NC(=O)c1cnc2ccccc2n1)C(=O)N1CCCC1` (stereo partly drawn) [Quinoxaline-2-carboxylic acid [(1S,2S)-1-benzyl-7-fluoro-2-hydroxy-7-methyl-4-(pyrrolidine-1-carbonyl)-octyl]-amide], the midpoint of inhibition, the IC50, lay at 0.74 µM. As for `CC(C)(O)CCC(C[C@H](O)[C@H](Cc1ccccc1F)NC(=O)c1cnc2ccccc2n1)C(N)=O` (stereo partly drawn) [Quinoxaline-2-carboxylic acid [(1S,2S)-4-carbamoyl-1-(2-fluoro-benzyl)-2,7-dihydroxy-7-methyl-octyl]-amide], the figure is 0.68 µM.
